# Reference: paper PMC7175277, “Hydroxylamine Analogue of Agmatine: Magic Bullet for Arginine Decarboxylase” (Biomolecules, 2020)
# Key:
# E. coli ADC [1] = biological target: T1, E. coli ADC (Escherichia coli, UniProt P21170); test: E. coli ADC activity assay (HPLC of agmatine); type: biochemical; details: 0.1 mM PLP; 15 min preincubation; 0.15 mM L-Arg
# T1 construct: The kinetic parameters determined for the partially purified biosynthetic ADC from E. coli; endogenous in cells; host or cells: E. coli DH5α (39-53% ammonium sulphate fraction of the lysate, desalted)
# T1 sequence (P21170 1-658): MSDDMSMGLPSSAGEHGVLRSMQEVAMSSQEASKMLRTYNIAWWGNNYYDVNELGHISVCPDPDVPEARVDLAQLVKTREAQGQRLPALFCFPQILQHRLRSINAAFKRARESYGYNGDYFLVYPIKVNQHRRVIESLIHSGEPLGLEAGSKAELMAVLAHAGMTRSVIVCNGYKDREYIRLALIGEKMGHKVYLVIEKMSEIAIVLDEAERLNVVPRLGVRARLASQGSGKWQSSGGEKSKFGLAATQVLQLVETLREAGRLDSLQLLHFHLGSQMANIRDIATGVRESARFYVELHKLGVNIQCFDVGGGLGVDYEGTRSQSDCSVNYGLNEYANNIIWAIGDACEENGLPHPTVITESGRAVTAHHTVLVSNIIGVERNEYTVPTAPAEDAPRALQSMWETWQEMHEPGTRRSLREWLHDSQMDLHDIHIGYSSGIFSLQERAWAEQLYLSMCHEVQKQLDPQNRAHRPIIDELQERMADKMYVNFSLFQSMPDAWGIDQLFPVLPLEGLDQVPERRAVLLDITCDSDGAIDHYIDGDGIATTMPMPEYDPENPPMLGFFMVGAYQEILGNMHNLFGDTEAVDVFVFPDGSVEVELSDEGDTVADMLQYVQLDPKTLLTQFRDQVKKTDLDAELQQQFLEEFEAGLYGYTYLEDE
# Method: (§1) The purification was performed using a modified procedure of earlier publication. E. coli strain DH5α was grown in Luria-Bertani broth at +37 °C with shaking (200 rpm) overnight. The cells were collected by centrifugation and the pellet was homogenized with Potter-Elvehjem in 10 volumes (w/v) of ice-cold 50 mM Tris-HCl pH 7.4, 1 mM DTT. The cell debris was removed by centrifugation at 12,000 g for 30 min at +4 °C. Solid (NH4)2SO4 was added to the supernatant, and the pellet precipitating between 39% and 53% saturation was separated. The precipitate was resuspended in ice-cold buffer containing 50 mM Tris-HCl pH 7.4 and 1 mM DTT and desalted by passage through Sephadex G-25 column (NAP-10 column, GE Healthcare). The protein concentration was measured with Bio-Rad protein reagent, and the partially purified enzyme preparation was mixed with 20% glycerol and aliquoted for storage at −80 °C.
# […] The ODC reaction mixture contained 50 mM Tris-HCl pH 7.8, 1 mM EDTA, 2.4 mM DTT, 0.1 mM PLP and 20 μg of partially purified enzyme preparation. The mixtures were either preincubated or not preincubated for 15 min at +40 °C in the presence of the inhibitor, after which the reaction was started by the addition of 18 μL of 10× substrate (L-Arg for ADC and L-Orn for ODC). After incubation for 30 min (ADC) or 20 min (ODC) at +40 °C, 20 μL of 50% sulphosalicylic acid containing 50 μM diaminoheptane (internal standard) was added and the samples were analyzed for the content of agmatine (ADC) and Put (ODC) with HPLC as described previously. The kinetic parameters and IC50 values were determined with the aid of GraphPad Prism version 5.03 using nonlinear regression analysis.
# [2] = system: Acremonium chrysogenum wild-type (WT) ATCC 11550; test: Fungal growth inhibition (drop-dilution, CD agar), WT strain; type: cell-based; details: for inhibition at 5000 µM: Hapsidospora chrysogena, ATCC11550, 336 h, 14 days after inoculation on CD medium
# Text: (§2) Two strains of Acremonium chrysogenum were used in this study: the wild-type (Brotzu) isolate ATCC 11550 (WT) and high-cephalosporin-yielding RNCM F-4081D (HY), derived from the WT [37]. The cultivation conditions were the same as previously described. The filamentous fungi were cultivated on agarized Czapek-Dox (CD) medium (30 g/L sucrose, 2 g/L NaNO3, 1 g/L K2HPO4, 0.5 g/L MgSO4×7 H2O, 0.5 g/L KCl, 0.01 g/L FeSO4×7 H2O, 20 g/L agar, pH 7.0–7.4). To determine the toxic effect of AO-Agm, APA, DFMA and DFMO on the growth of fungal cells the drop-dilution method was used with some modifications as described earlier. Cells were collected from agar slants and diluted with 0.9% NaCl solution up to OD600 = 0.5 (basic concentration), followed by serial tenfold dilutions with the same solution. […] The inoculated Petri dishes were incubated for 21 days at 26 °C. The inhibitory effects of the compounds were measured every three days after inoculation and evaluated by measuring the ratio of colony growth on agarized CD medium supplemented with AO-Agm, APA, DFMA, or DFMO to the growth in the control (agarized CD medium without any additions). The formula: growth inhibition % = [(Dc − Dt)/Dc] × 100, where Dc indicates the colony diameter in control set, and Dt indicates the colony diameter in the treatment set that was used to determine the percent of fungal growth inhibition. The data recorded were measured in triplicate and repeated at least twice.
# [3] = system: Acremonium chrysogenum high-cephalosporin-yielding (HY) RNCM F-4081D; test: Fungal growth inhibition (drop-dilution, CD agar), HY strain; type: cell-based; details: for inhibition at 5000 µM: Hapsidospora chrysogena, 336 h, read-out: Growth inhibition
# Text: as §2
# E. coli ODC = E. coli ODC (Escherichia coli, UniProt P21169); test: E. coli ODC activity assay (HPLC of Put); type: biochemical; details: 0.1 mM PLP; 15 min preincubation; 7 mM L-Orn
# Sequence of E. coli ODC (P21169 whole entry): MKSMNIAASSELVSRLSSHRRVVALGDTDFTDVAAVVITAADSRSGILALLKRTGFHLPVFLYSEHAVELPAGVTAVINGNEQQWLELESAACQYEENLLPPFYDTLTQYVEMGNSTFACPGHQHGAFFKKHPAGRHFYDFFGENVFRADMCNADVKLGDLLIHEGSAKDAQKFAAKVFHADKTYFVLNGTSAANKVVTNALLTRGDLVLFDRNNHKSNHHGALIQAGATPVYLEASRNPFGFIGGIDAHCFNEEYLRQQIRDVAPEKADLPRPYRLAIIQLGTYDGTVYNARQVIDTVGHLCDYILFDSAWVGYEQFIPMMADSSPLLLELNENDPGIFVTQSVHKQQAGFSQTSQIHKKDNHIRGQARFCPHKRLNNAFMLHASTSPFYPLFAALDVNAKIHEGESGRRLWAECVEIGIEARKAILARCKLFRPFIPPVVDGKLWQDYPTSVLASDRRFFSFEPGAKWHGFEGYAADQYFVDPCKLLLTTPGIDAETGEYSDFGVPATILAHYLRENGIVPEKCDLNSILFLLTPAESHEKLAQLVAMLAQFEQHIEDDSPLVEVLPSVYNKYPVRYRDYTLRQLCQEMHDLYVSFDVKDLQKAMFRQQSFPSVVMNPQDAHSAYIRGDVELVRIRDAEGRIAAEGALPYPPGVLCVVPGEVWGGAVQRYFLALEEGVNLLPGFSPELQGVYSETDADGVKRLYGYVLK
# Method: as §1
# The ADC reaction mixture contained 50 mM Tris-HCl pH 7.8, 4 mM MgCl2, 1 mM DTT, 1.0 or 0.1 mM PLP and 20 μg of partially purified enzyme preparation in a total volume of 162 μL. The ODC reaction mixture contained 50 mM Tris-HCl pH 7.8, 1 mM EDTA, 2.4 mM DTT, 0.1 mM PLP and 20 μg of partially purified enzyme preparation. […] After incubation for 30 min (ADC) or 20 min (ODC) at +40 °C, 20 μL of 50% sulphosalicylic acid containing 50 μM diaminoheptane (internal standard) was added and the samples were analyzed for the content of agmatine (ADC) and Put (ODC) with HPLC as described previously. The kinetic parameters and IC50 values were determined with the aid of GraphPad Prism version 5.03 using nonlinear regression analysis.
# A. chrysogenum WT strain = test: Polyamine content in the fungi, WT strain; type: cell-based, Acremonium chrysogenum; details: 24 h
# Method: (§3) WT and HY A. chrysogenum strains were preliminarily grown in tubes on CD medium slants for 7 days at 25 °C and used for the inoculation of 30 mL of a liquid CD medium (seed medium). The strains were cultivated on CD medium for 48 h at 26 °C and inoculated into ten volumes of CD medium. The fermentation was carried out for 120 h at 26 °C in 250-mL Erlenmeyer flasks on a CERTOMAT BS-1 shaker (Sartorius, Germany) at 230 rpm, as described earlier. After 24 h of culture, 1 mL aliquots were removed, fungi were separated by centrifugation (15 min, 14,000 g) and washed with H2O (3 × 2 mL). The washed biomass was subjected to three cycles of freezing (−80 °C) and thawing at 20 °C in 5% perchloric acid. After the final thaw, samples were vortexed for 2 min and centrifuged for 10 min at 14,000 g. The supernatant was used for the determination of polyamine content.
# (§4) The dry biomass was prepared from 2 mL aliquots of fermentation media after 24 h. The biomass was separated by centrifugation (15 min, 14,000 g), the precipitated fungi cells were washed in triplicate with 10 volumes of H2O, dried at 80 °C for 96 h to a constant weight and used for normalization of polyamine content in the fungi.
# (§5) Polyamines were determined by HPLC from 50 µL of the 5% perchloric acid supernatant using a precolumn modification with Dans-Cl following mostly the published protocol. 1,7-Diaminoheptane was used as an internal standard and proline applied to quench the dansylation reaction. The solution of the dansylated polyamines in toluene (2 μL) was mixed with 50% aq. ethanol (13 µL) and applied on a reversed phase column (Cosmosil C18-MS-II, 250 × 4.6 mm, 5 µm). The column was eluted (1 mL/min) with the gradient: 0 min—0% B; 4 min—65% B; 17 min—65% B; 19 min—100% B, 23 min—100% B, 25 min—0% B; 30 min—0% B. System A—40% acetonitrile, 60% H2O. System B—80% acetonitrile, 20% tetrahydrofuran. Column temperature 40 °C, pressure 80–120 bar, fluorescent detection: λex 340 nm, λem 530 nm (detector RF-20A, Shimadzu Scientific Instrument, Columbia, MD, USA).
# A. chrysogenum HY strain = test: Polyamine content in the fungi, HY strain; type: cell-based, Acremonium chrysogenum; details: 24 h
# Method: as §3, §4, §5
# E. coli ADC [4] = biological target: T1, E. coli ADC; design: method as in PMID 4571773; details: pH 8.4; cited from earlier work
smiles,measurement,setting,value
"N=C(N)NCCCC(N)(C(=O)O)C(F)F (racemic) [DFMA, D,L-α-(difluoromethyl)arginine]",IC50,E. coli ADC [1],10 ± 1 µM
same,inhibition at 5000 µM,[2]; 5 mM inhibitor,7%
same,inhibition at 5000 µM,[3],13%
"NCCC[C@](N)(C(=O)O)C(F)F [DFMO, α-(Difluoromethyl)ornithine]",Potency to inhibit E. coli ODC,E. coli ODC,very low potency
same,Growth inhibition compared with 1 mM APA,[2]; 1 mM inhibitor,significantly less effective
same,Growth of WT strain,[2]; 5 mM inhibitor,completely inhibited
same,Effect of 0.5 mM Spd on the growth arrest caused by the inhibitor,[2]; 5 mM inhibitor + 0.5 mM Spd,reversed the growth arrest
same,inhibition at 5000 µM,[2]; 5 mM inhibitor,100%
same,Growth inhibition compared with 5 mM,"[3]; HY strain, 1 mM inhibitor",much less effective
same,inhibition at 5000 µM,[3],41%
same,Put,A. chrysogenum WT strain; 5 mM DFMO + 0.5 mM Spd,<10 pmol/mg Dry Weight
same,Spd,A. chrysogenum WT strain; 5 mM DFMO + 0.5 mM Spd,"11,530 ± 3690 pmol/mg Dry Weight"
same,Spm,A. chrysogenum WT strain; 5 mM DFMO + 0.5 mM Spd,90 ± 30 pmol/mg Dry Weight
same,Put,A. chrysogenum WT strain; 5 mM DFMO,<10 pmol/mg Dry Weight
same,Spd,A. chrysogenum WT strain; 5 mM DFMO,140 ± 10 pmol/mg Dry Weight
same,Spm,A. chrysogenum WT strain; 5 mM DFMO,170 ± 20 pmol/mg Dry Weight
same,Put,A. chrysogenum HY strain; 5 mM DFMO + 0.5 mM Spd,<10 pmol/mg Dry Weight
same,Spd,A. chrysogenum HY strain; 5 mM DFMO + 0.5 mM Spd,"46,630 ± 6700 pmol/mg Dry Weight"
same,Spm,A. chrysogenum HY strain; 5 mM DFMO + 0.5 mM Spd,340 ± 56 pmol/mg Dry Weight
same,Put,A. chrysogenum HY strain; 5 mM DFMO,<10 pmol/mg Dry Weight
same,Spd,A. chrysogenum HY strain; 5 mM DFMO,410 ± 60 pmol/mg Dry Weight
same,Spm,A. chrysogenum HY strain; 5 mM DFMO,424 ± 39 pmol/mg Dry Weight
"N=C(N)NCCC[C@H](N)C(=O)O [L-Arg, L-arginine]",Km,E. coli ADC [4],30 µM
